Laboratory results published in patent US20240245677A1, “SELECTED COMPOUNDS FOR TARGETED DEGRADATION OF BRD9” (C4 THERAPEUTICS, INC., priority 2021, published 2024).

Key:
[1] = tested on: HSSYII synovial sarcoma cell line; experiment: Global proteomics in HSSYII cells; assay type: cell-based, human; settings: 100 nM, 4 hours
Procedure: Global protein expression was performed in Yamato-SS and HSSYII synovial sarcoma cell lines after 4-hour treatment with Compound 1 (100 nM). The Yamato-SS cell line was provided by the RIKEN BRC through the National BioResource Project of the MEXT/AMED, Japan (cat #RCB3577), and the HS-SY-II cell line was provided by the RIKEN BRC through the National BioResource Project of the MEXT/AMED, Japan (cat #RCB2231).
Both Yamato-SS and HSSYII cell lines were treated with Compound 1 at 100 nM for 4 hours and analyzed by multiplexed quantitative proteomics. The x-axis illustrates the totality of the proteomics data and is labeled as fold change (FC) of Compound 1 vs vehicle in a Log 2 transformation scale. The statistical significance (T-test of treated vs. DMSO with Benjamini-Hochberg correction applied) of the observed changes is shown in the y-axis as negative Log 10 of the P-value. The horizontal dashed line marks the statistical significance (P-value ≤0.001) and the vertical line marks fold change ≥2.

[2] = Mouse Hepatocyte Stability Assay; assay type: in vitro ADME; settings: CD-1, cryopreserved hepatocytes
Procedure: (§1) The metabolic stability of Compound 1 was evaluated using cryopreserved hepatocytes from mice, rats, dogs, cynomolgus monkeys, and humans.
(§2) 50 μL of 1 mM intermediate solutions for each test compound was prepared by adding 5 μL of 10 mM stock solution to 45 μL of a 1:1 mixture of water and acetonitrile. A 2 μM working stocks for each test compound were prepared in incubation media, InvitroGRO™ KHB (Bio IVT, Westbury, NY, USA), by adding 2 μL of 1 mM intermediate stock to 998 μL of incubation media.
(§3) To thaw the hepatocytes, InvitroGRO™ HT thawing medium (BioIVT, Westbury, NY, USA) was prewarmed to 37° C., and 48 mL of warmed thawing medium was transferred to a sterile 50 mL conical tube. The hepatocyte vial was removed from the liquid nitrogen Dewar, and gently thawed in a water bath at 37° C. for 1-2 minutes, then the contents of the vial were emptied into a conical tube with prewarmed InvitroGRO HT medium. 1 mL of prewarmed InvitroGRO HT medium was added to each emptied hepatocyte vial to resuspend any remaining cells, and the contents were pipetted into the hepatocyte suspension. The tube containing the hepatocyte suspension was centrifuged at 50*g for 5 minutes. The supernatant was removed carefully, and the remaining pellet was resuspended by adding 1 mL of incubation media, InvitroGRO KHB, and gently shaking until there were no clumps.
(§4) Cell viability was determined using the trypan blue method. 25 μL of hepatocyte cell suspension was added to a trypan blue (TB) solution (containing 775 μL InvitroGRO KHB and 200 μL of Trypan Blue). Cell count was taken using a hemacytometer.
(§5) For mouse hepatocytes, 200 μL of hepatocytes (0.8×10^6 cells/mL) were added to the wells of a 48 well plate (Catalog No. 92048, TPP Techno Plastic Products AG, Trasadingen, Switzerland) and pre-incubated for 30 minutes at 37° C. For rat, dog, monkey, […], 200 μL of hepatocytes (2×10^6 cells/mL) were added to the wells of a 48 well plate (Catalog No. 92048, TPP Techno Plastic Products AG, Trasadingen, Switzerland) and pre-incubated for 30 minutes at 37° C.
(§6) For all species of hepatocytes, once the pre-incubation period was complete, 200 μL of 2 μM working stock of test compound was added to the wells of the plate, and the plate was vortexed on a Vibramax™ 100 (P/N 544-21200-00, Heidolph Instruments GmbH & Co. KG, Schwabach, Germany) at 500 rpm in a 37° C. CO2 incubator (Model No. 51026280, ThermoFisher Scientific, Waltham, MA, USA). At each time point of 0, 15, 30, 60, 90, and 120 minutes, 50 μL of incubation mixture was precipitated with 200 μL of acetonitrile containing internal standard.
(§7) At the end of the experiment, the samples were centrifuged at 4000 rpm for 10 minutes. The supernatant was collected and diluted with an equal amount of water, and vortexed for 5 minutes at 900 rpm in MixMate® (Model No. 5353, Eppendorf SE, Hamburg, Germany).
(§8) The supernatant samples were submitted for LC-MS/MS analysis.
(§9) Calculations of the results included the following: […]

[3] = tested on: cryopreserved hepatocytes from CD-1 mice; experiment: Mouse Hepatocyte Stability Assay; assay type: in vitro ADME
Procedure: as §1, §2, §3, §4, §5, §6, §7, §8, §9

What does the source list for `COc1cc(-c2cn(C)c(=O)c(C)c2C)cc(OC)c1CN1CC[C@H](N2CCN(c3ccc(N[C@H]4CCC(=O)NC4=O)cc3F)CC2)C(F)(F)C1` [Compound 1, (S)-3-((4-(4-((S)-1-(2,6-dimethoxy-4-(1,4,5-trimethyl-6-oxo-1,6-dihydropyridin-3-yl)benzyl)-3,3-difluoropiperidin-4-yl)piperazin-1-yl)-3-fluorophenyl)amino)-piperidine-2,6-dione]?
BRD9 protein level decrease vs DMSO control [1]: 66.7%; Emax at 0.1 µM ([1]; Homo sapiens, read-out: BRD9 Emax): 33.3%; half-life at 1 µM [2]: > 2 h; hepatocyte CLint at 1 µM ([2]; read-out: CL int cells): 4.26 µL/min/1e6 cells; CLh int in vivo [3]: 44.94 mL/min/Kg body wt.; CLhb scaled well stirred [3]: 30.0 mL/min/kg body wt.
